For one assay, the target named is T1, hsst3 (Homo sapiens, UniProt P32745).
T1 construct: expressed in transfected cells
The assay is described as follows: Somatostatin receptor radioligand binding assay, hsst3. In a few lines:
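Membranes from CHO-K1 cells stably transfected with each human SSTR subtype, incubated 90 min at 25 °C with 0.05 nM [125I-Tyr11]SS-14 in 50 mM HEPES pH 7.4 with BSA, MgCl2 and protease inhibitors; filtration read-out. Nonspecific binding with 1000 nM SS-14; Ki values reported.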

The target in the next assay is T2, hsst2 (Homo sapiens, UniProt P30874).
T2 construct: expressed in transfected cells
The assay is described as follows: Somatostatin receptor radioligand binding assay, hsst2. To be noted: CHO-K1 membranes, [125I]MK-678; read-out: hsst2 Ki. In a few lines:
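Membranes from CHO-K1 cells stably expressing human SSTR2, in 10 mM Tris-HCl, incubated 90 min at 25 °C with 0.05 nM [125I]MK-678. Bound ligand collected by filtration on PEI-soaked GF/C filters; nonspecific binding defined with 1000 nM MK-678.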

The target in a further assay is T3, hsst5 (Homo sapiens, UniProt P35346).
T3 construct: expressed in transfected cells
The assay is described as follows: Somatostatin receptor radioligand binding assay, hsst5. To be noted: CHO-K1 membranes, [125I-Tyr11]SS-14. The method, boiled down:
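Membranes from CHO-K1 cells stably expressing hsst5, incubated 90 min at 25 °C with 0.05 nM [125I-Tyr11]SS-14 in 50 mM HEPES pH 7.4 with BSA, MgCl2 and protease inhibitors. Bound ligand collected by filtration. Non-specific binding defined with 1000 nM SS-14.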

For another assay, the target named is hDA2. Nature of the assay: Dopamine-2 receptor radioligand binding assay. To be noted: [3H]spiperone. More on the design: species or system human.
The target in a further assay is T4, hsst1 (Homo sapiens, UniProt P30872).
T4 construct: expressed in transfected cells
Nature of the assay: Somatostatin receptor radioligand binding assay, hsst1. On the procedure: Specificity and selectivity of the somatostatin analogues used to synthesize the somatostatin-dopamine chimers were determined by a radioligand binding assay on CHO-K1 cells stably transfected with each of the SSTR subtypes, as follows. Somatostatin analogs are also described in U.S. Patent Application Publication No. 02210006790. The complete coding sequences of genomic fragments of the SSTR 1 (e.g., Genbank accession No. M81829), SSTR 2 (e.g., Genbank accession No. M81830), SSTR 3 (e.g., Genbank accession No. L07062), and SSTR 4 (e.g., Genbank accession No. AL049651) genes and a cDNA clone for SSTR 5 (e.g., Genbank accession No. D16827) was subcloned into the mammalian expression vector pCMV (Life Technologies, Milano, Italy). Other SSTR sequences are known to the skilled artisan. Clonal cell lines stably expressing SSTR's 1-5 were obtained by transfection into CHO-K1 cells (ATCC, Manassas, Va., USA) using the calcium phosphate co-precipitation method (Davis L, et al., 1994 In: Basic methods in Molecular Biology, 2nd edition, Appleton & Lange, Norwalk, Conn., USA: 611-646). The plasmid pRSV-neo (ATCC) was included as a selectable marker. Clonal cell lines were selected in RPMI 1640 media containing 0.5 mg/mL of G418 (Life Technologies, Milano, Italy), ring cloned, and expanded into culture.
Membranes for in vitro receptor binding assays were obtained by homogenizing the CHO-K1 cells expressing the SSTR's subtypes in ice-cold 50 mM Tris-HCl and centrifuging twice at 39,000 g (10 min), with an intermediate resuspension in fresh buffer. The final pellets were resuspended in 10 mM Tris-HCl for assay.
For the SSTR 1, 3, 4, and 5 assays, aliquots of the membrane preparations were incubated 90 minutes at 25° C. with 0.05 nM [^125I-Tyr11]SS-14 in 50 mM HEPES (pH 7.4) containing 10 mg/mL BSA, 5 mM MgCl2, 200 KIU/mL Trasylol, 0.02 mg/mL bacitracin, and 0.02 mg/mL phenylmethylsuphonyl fluoride. The final assay volume was 0.3 mL.
For the SSTR 2 assay, 0.05 nM [^125I]MK-678 was employed as the radioligand and the incubation time was 90 minutes at 25° C. The incubations were terminated by rapid filtration through GF/C glass microfiber filters (Whatman Co.) (pre-soaked in 0.3% polyethylenimine) using a BRANDEL filtration manifold. Each tube and filter was washed three times with 5 mL aliquots of ice-cold buffer. Specific binding was defined as the total radioligand bound minus that bound in the presence of 1000 nM SS-14 for SSTR 1, 3, 4, and 5, or 1000 nM MK-678 for SSTR2.
(§1) Using the discussed assays, the inhibition constants (Ki) for the five human somatostatin receptors (hSSTR1-hSSTR5) and the dopamine-2 receptor (hUTII and hDA2) were measured for the exemplified somatostatin-dopamine conjugates, as follows: […]

A further assay deals with T5, hUTII (Homo sapiens, UniProt Q9UKP6).
T5 sequence (Q9UKP6 1-389): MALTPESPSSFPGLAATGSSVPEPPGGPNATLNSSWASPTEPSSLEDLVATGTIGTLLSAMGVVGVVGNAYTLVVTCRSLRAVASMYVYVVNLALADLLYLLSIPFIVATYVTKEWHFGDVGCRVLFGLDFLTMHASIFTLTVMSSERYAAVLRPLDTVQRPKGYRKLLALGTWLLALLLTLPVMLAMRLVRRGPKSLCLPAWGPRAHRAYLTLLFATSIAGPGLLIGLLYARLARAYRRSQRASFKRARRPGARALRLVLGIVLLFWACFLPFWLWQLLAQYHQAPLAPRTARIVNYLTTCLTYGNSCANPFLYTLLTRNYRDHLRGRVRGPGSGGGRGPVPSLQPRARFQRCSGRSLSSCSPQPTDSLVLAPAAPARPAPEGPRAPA
The assay is described as follows: hUTII inhibition constant. Format: binding. To be noted: read-out: hUTII Ki. The procedure: as §1

Where [1] appears, read: CHO-K1 membranes, [125I-Tyr11]SS-14, read-out: hsst3 Ki.
The mark [2] stands for this setting: CHO-K1 membranes, [125I-Tyr11]SS-14, read-out: hsst1 Ki.

This passage reports Ki results from patent US20110065632A1, “PHARMACEUTICAL COMPOSITIONS OF SOMATOSTATIN-DOPAMINE CONJUGATES” (priority 2008, published 2011).

Usually pKi stands for the Ki on a negative log10 scale, so that one unit is a factor of ten.

The structures appear in SMILES notation. pKi: −log10 of the molar value. Where two headings read alike, the source gives them in different places. Numbered stars: 1 amine (or outer) side, 2 acyl side, 3 side chain; on linkers, the order of the positions; unused ones are H or OH. Bridge positions count the residues as written; N and C are the ends. Square brackets hold non-standard residues; d marks the D form. Peptide text beside a SMILES is read from it. * marks the point of attachment. X1 = CCCN1C[C@H](CSCC(=O)*)C[C@@H]2c3cccc4[nH]cc(c34)C[C@H]21; X2 = CN1C[C@H](CSCC(=O)*)C[C@@H]2c3cccc4[nH]cc(c34)C[C@H]21; Pipz(1-CH2CO,4-CH2CH2NH) = O=C(CN1CCN(CCN[*:1])CC1)[*:2]; Abu = CC[C@H](N)C(=O)O

T1 sequence (P32745 whole entry): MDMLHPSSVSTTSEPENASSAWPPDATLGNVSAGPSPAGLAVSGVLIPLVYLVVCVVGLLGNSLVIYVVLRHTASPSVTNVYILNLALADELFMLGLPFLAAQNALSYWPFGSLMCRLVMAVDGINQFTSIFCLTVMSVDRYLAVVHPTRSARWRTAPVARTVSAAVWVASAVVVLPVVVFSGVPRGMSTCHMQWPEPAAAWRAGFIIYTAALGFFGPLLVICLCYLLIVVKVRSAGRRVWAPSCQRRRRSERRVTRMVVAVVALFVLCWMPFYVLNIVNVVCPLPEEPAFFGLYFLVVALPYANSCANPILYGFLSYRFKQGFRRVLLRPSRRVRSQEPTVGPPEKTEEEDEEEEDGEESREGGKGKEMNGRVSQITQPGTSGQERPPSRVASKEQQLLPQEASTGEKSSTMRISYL
T4 sequence (P30872 whole entry): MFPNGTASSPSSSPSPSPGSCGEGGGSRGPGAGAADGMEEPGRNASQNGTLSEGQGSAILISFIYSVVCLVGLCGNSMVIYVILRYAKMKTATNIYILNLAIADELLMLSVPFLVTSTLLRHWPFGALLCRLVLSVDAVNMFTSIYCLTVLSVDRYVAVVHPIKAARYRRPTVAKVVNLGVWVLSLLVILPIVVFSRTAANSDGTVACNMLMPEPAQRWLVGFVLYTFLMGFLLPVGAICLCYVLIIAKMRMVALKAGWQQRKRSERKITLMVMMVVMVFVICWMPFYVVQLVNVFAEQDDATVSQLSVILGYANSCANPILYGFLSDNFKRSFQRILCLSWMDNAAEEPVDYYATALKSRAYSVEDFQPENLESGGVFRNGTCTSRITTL
T2 sequence (P30874 whole entry): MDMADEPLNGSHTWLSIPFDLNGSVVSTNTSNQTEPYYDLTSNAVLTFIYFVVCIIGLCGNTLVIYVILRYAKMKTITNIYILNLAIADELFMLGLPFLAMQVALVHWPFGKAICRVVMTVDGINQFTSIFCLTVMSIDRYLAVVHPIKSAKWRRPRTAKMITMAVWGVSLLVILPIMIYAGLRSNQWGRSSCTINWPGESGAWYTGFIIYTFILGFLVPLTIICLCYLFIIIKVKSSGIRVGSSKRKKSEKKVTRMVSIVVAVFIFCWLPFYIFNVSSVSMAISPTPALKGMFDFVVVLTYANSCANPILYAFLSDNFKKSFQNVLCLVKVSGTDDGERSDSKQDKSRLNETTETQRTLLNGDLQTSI
T3 sequence (P35346 whole entry): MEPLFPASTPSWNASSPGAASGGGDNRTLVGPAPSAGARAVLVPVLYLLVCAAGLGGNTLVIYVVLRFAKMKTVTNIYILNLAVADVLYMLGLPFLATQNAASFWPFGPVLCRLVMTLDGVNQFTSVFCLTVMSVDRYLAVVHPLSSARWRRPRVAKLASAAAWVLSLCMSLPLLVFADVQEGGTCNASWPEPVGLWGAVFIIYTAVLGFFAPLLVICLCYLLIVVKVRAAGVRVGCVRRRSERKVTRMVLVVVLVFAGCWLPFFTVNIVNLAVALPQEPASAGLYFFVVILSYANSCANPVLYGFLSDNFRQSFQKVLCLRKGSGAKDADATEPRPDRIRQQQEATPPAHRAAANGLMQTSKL

Consider `CCCN1C[C@H](CSCC(=O)NCCCC[C@H](NC(=O)CSC[C@@H]2C[C@@H]3c4cccc5[nH]cc(c45)C[C@H]3N(CCC)C2)C(=O)N[C@H](Cc2ccc(O)cc2)C(=O)N[C@H](Cc2ccc(O)cc2)C(=O)N[C@H]2CSSC[C@@H](C(=O)N[C@H](C(N)=O)[C@@H](C)O)NC(=O)[C@H](CC)NC(=O)[C@H](CCCCN)NC(=O)[C@@H](Cc3c[nH]c4ccccc34)NC(=O)[C@H](Cc3ccc(O)cc3)NC2=O)C[C@@H]2c3cccc4[nH]cc(c34)C[C@H]21` [Example 10] (X1-K(X1)[dY][dY]CY[dW]K[Abu]CT-NH2; disulfide 4-9), for which the pKi was 6.49 on hsst3 (setting [1]); 9.82 on hsst2; 7.58 at hsst5 (read-out: hsst5 Ki); 8.09 at hDA2; 6.26 on hsst1 (setting [2]); 6.75 on hUTII.

In the case of `CCCN1C[C@H](CSCC(=O)NCCCC[C@H](NC(C)=O)C(=O)N[C@H](Cc2ccc(O)cc2)C(=O)N[C@H](Cc2ccc(O)cc2)C(=O)N[C@H]2CSSC[C@@H](C(=O)N[C@H](C(N)=O)[C@@H](C)O)NC(=O)[C@H](CC)NC(=O)[C@H](CCCCN)NC(=O)[C@@H](Cc3c[nH]c4ccccc34)NC(=O)[C@H](Cc3ccc(O)cc3)NC2=O)C[C@@H]2c3cccc4[nH]cc(c34)C[C@H]21` [Example 11] (Ac-K(X1)[dY][dY]CY[dW]K[Abu]CT-NH2; disulfide 4-9), the pKi was 6.79 on hsst3 (setting [1]); 10.40 at hsst2; 8.05 on hsst5 (read-out: hsst5 Ki); 6.92 at hDA2; 6.36 at hsst1 (setting [2]); 7.19 on hUTII.

As to `CCCN1C[C@H](CSCC(=O)NCCN2CCN(CC(=O)N[C@H](Cc3ccccc3)C(=O)N[C@H]3CSSC[C@@H](C(=O)N[C@H](C(N)=O)[C@@H](C)O)NC(=O)[C@H](CC)NC(=O)[C@H](CCCCN)NC(=O)[C@@H](Cc4c[nH]c5ccccc45)NC(=O)[C@H](Cc4ccc(O)cc4)NC3=O)CC2)C[C@@H]2c3cccc4[nH]cc(c34)C[C@H]21` [Example 24], the negative logarithm of the Ki (pKi) was 6.81 at hsst3 (setting [1]); 9.43 at hsst2; 7.62 at hsst5 (read-out: hsst5 Ki); 6.85 on hDA2; 6.00 on hsst1 (setting [2]); 5.82 at hUTII.

On to `CC[C@@H]1NC(=O)[C@H](CCCCN)NC(=O)[C@@H](Cc2c[nH]c3ccccc23)NC(=O)[C@H](Cc2ccc(O)cc2)NC(=O)[C@@H](NC(=O)[C@@H](Cc2ccc(O)cc2)NC(=O)[C@@H](Cc2ccc(O)cc2)NC(=O)[C@H](CCCCN)NC(=O)CN2CCN(CCNC(=O)CN3CCN(CCNC(=O)CSC[C@@H]4C[C@@H]5c6cccc7[nH]cc(c67)C[C@H]5N(C)C4)CC3)CC2)CSSC[C@@H](C(=O)N[C@H](C(N)=O)[C@@H](C)O)NC1=O` [Example 28] (X2-[Pipz(1-CH2CO,4-CH2CH2NH)][Pipz(1-CH2CO,4-CH2CH2NH)]K[dY][dY]CY[dW]K[Abu]CT-NH2; disulfide 6-11), for which the pKi at hsst3 was 6.81; on hsst2 it was 9.96; on hsst5 (hsst5 Ki), 8.29; at hDA2 it was 6.30; on hsst1, 6.18; at hUTII, 6.25.

With `CC[C@@H]1NC(=O)[C@H](CCCCN)NC(=O)[C@@H](Cc2c[nH]c3ccccc23)NC(=O)[C@H](Cc2ccc(O)cc2)NC(=O)[C@@H](NC(=O)[C@@H](Cc2ccccc2)NC(=O)CSC[C@@H]2C[C@@H]3c4cccc5[nH]cc(c45)C[C@H]3N(C)C2)CSSC[C@@H](C(=O)N[C@H](C(N)=O)[C@@H](C)O)NC1=O` [Example 30], the pKi on hsst3 (setting [1]) is 7.31; on hsst2, 9.82; at hsst5 (read-out: hsst5 Ki), 7.80; at hDA2 it was 7.62; at hsst1 (setting [2]) it was 6.16; on hUTII, 6.21.

With `CCCN1C[C@H](CSCC(=O)N[C@H](Cc2ccccc2)C(=O)N[C@H]2CSSC[C@@H](C(=O)N[C@H](C(N)=O)[C@@H](C)O)NC(=O)[C@H](CC)NC(=O)[C@H](CCCCN)NC(=O)[C@@H](Cc3c[nH]c4ccccc34)NC(=O)[C@H](Cc3ccc(O)cc3)NC2=O)C[C@@H]2c3cccc4[nH]cc(c34)C[C@H]21` [Example 31], the pKi on hsst3 (setting [1]) was 7.07; at hsst2, 10.00; on hsst5 (read-out: hsst5 Ki), 7.64; on hDA2 it was 7.59; on hsst1 (setting [2]), 6.16; on hUTII it was 6.30.

In the case of `CC[C@@H]1NC(=O)[C@H](CCCCN)NC(=O)[C@@H](Cc2c[nH]c3ccccc23)NC(=O)[C@H](Cc2ccc(O)cc2)NC(=O)[C@@H](NC(=O)[C@@H](Cc2ccccc2)NC(=O)COCCOCCNC(=O)CSC[C@@H]2C[C@@H]3c4cccc5[nH]cc(c45)C[C@H]3N(C)C2)CSSC[C@@H](C(=O)N[C@H](C(N)=O)[C@@H](C)O)NC1=O` [Example 40], the pKi is 7.15 at hsst3 (setting [1]); 9.49 on hsst2; 7.77 on hsst5 (read-out: hsst5 Ki); 6.59 at hDA2; 6.00 on hsst1 (setting [2]); 6.65 on hUTII.

Regarding `CC[C@@H]1NC(=O)[C@H](CCCCN)NC(=O)[C@@H](Cc2c[nH]c3ccccc23)NC(=O)[C@H](Cc2ccc(O)cc2)NC(=O)[C@@H](NC(=O)[C@@H](Cc2ccccc2)NC(=O)COCCOCCNC(=O)COCCOCCNC(=O)CSC[C@@H]2C[C@@H]3c4cccc5[nH]cc(c45)C[C@H]3N(C)C2)CSSC[C@@H](C(=O)N[C@H](C(N)=O)[C@@H](C)O)NC1=O` [Example 42], the pKi at hsst3 (setting [1]) is 6.92; on hsst2 it was 9.47; on hsst5 (read-out: hsst5 Ki), 7.69; at hDA2, 6.56; at hsst1 (setting [2]), 6.00; on hUTII, 6.29.
